Data on 16 compounds can be found in patent publication US20240025919A1, “AZA-TETRACYCLIC OXAZEPINE COMPOUNDS AND USES THEREOF” (Genentech, Inc., priority 2022, published 2024).

Assay [1] has as its target KRAS G12D (Homo sapiens (Human), UniProt P01116, G12D). Kind of assay: KRAS G12D LoEnz Biochemical Assay, BODIPY-GDP Exchange TR-FRET (SOS1-mediated nucleotide exchange). The note with it: read-out: KRas (G12D) GDP HTRF IC50.
Assay [2] has as its target KRAS WT (Homo sapiens (Human), UniProt P01116). Kind of assay: KRAS WT Biochemical Assay, BODIPY-GDP Exchange TR-FRET (Example 502; 0.06 nM KRAS WT, 15 nM GDP, 300 nM SOS1, 120-minute incubation). The note with it: read-out: KRas HTRF IC50. Summed up:
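IC50 from a 4-parameter Hill fit of percent inhibition, itself the TR-FRET 520/490 nm ratio scaled between DMSO and a fully inhibiting control. Reaction: 300 nM SOS1 and 300 nM BODIPY-GDP added to preformed 0.06 nM KRAS WT/15 nM GDP/Tb-streptavidin complex; 120 min incubation; pH 7.5 HEPES, MgCl2, DTT.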

Sequence of KRAS WT (P01116-2 other isoform, or with tags, fused parts or gaps): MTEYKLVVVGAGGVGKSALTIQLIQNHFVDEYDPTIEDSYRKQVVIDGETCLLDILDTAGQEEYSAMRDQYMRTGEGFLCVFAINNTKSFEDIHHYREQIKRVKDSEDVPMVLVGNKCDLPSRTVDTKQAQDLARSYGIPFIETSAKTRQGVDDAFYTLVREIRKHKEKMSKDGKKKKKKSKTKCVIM
Sequence of KRAS G12D (P01116-2 other isoform, or with tags, fused parts or gaps G12D): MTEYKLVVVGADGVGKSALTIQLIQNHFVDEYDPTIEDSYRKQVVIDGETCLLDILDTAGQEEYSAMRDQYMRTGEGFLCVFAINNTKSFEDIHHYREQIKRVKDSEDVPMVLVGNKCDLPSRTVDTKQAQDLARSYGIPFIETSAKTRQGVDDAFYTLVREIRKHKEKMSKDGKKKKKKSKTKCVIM

For the compound `Cc1cc(N)c(Cl)c(-c2nc3c4c(nc(OC[C@@H]5CC[C@H]6COCCN65)nc4c2F)N2C[C@H]4CC[C@H](N4)[C@H]2[C@H](C)O3)c1C(F)(F)F` [Compound 103, 2-Chloro-3-((5S,5aS,6S,9R)-1-fluoro-12-(((6S,8aS)-hexahydro-1H-pyrrolo[2,1-c][1,4]oxazin-6-yl)methoxy)-5-methyl-5a,6,7,8,9,10-hexahydro-5H-4-oxa-3,10a,11,13,14-pentaaza-6,9-methanonaphtho[1,8-ab]heptalen-2-yl)-5-methyl-4-(trifluoromethyl)aniline], the results for the half-maximal inhibitory concentration (IC50) in assay [1] and in assay [2] were 0.86 nM and 224 nM, respectively.

As to `Cc1c(F)c(N)cc(-c2nc3c4c(nc(OC[C@@]56CCCN5C[C@H](F)C6)nc4c2F)N2C[C@H]4CC[C@H](N4)[C@H]2[C@H](C)O3)c1CC(F)F` [Compound 75, 4-(2,2-Difluoroethyl)-2-fluoro-5-((5S,5aS,6S,9R)-1-fluoro-12-(((2R,7aS)-2-fluorotetrahydro-1H-pyrrolizin-7a(5H)-yl)methoxy)-5-methyl-5a,6,7,8,9,10-hexahydro-5H-4-oxa-3,10a,11,13,14-pentaaza-6,9-methanonaphtho[1,8-ab]heptalen-2-yl)-3-methylaniline], the 50% inhibitory concentration (IC50) in assay [1] came to 0.13 nM; in assay [2], 11.8 nM.

As to `C[C@@H]1Oc2nc(-c3cc(N)c(F)cc3C(F)(F)F)c(F)c3nc(OC[C@@H]4CC[C@H]5COCCN54)nc(c23)N2C[C@H]3CC[C@H](N3)[C@@H]12` [Compound 70, 2-Fluoro-5-((5S,5aS,6S,9R)-1-fluoro-12-(((6S,8aS)-hexahydro-1H-pyrrolo[2,1-c][1,4]oxazin-6-yl)methoxy)-5-methyl-5a,6,7,8,9,10-hexahydro-5H-4-oxa-3,10a,11,13,14-pentaaza-6,9-methanonaphtho[1,8-ab]heptalen-2-yl)-4-(trifluoromethyl)aniline], the IC50 in assay [1] came out at 0.71 nM; in assay [2], 169 nM.

For `Cc1c(F)c(N)cc(-c2nc3c4c(nc(OC[C@@H]5CCC6C=C(F)CCN65)nc4c2F)N2C[C@H]4CC[C@H](N4)[C@H]2[C@H](C)O3)c1C(F)(F)F` (stereo partly drawn) [Compound 120, 2-fluoro-5-((5S,5aS,6S,9R)-1-fluoro-12-(((3S)-7-fluoro-1,2,3,5,6,8a-hexahydroindolizin-3-yl)methoxy)-5-methyl-5a,6,7,8,9,10-hexahydro-5H-4-oxa-3,10a,11,13,14-pentaaza-6,9-methanonaphtho[1,8-ab]heptalen-2-yl)-3-methyl-4-(trifluoromethyl)aniline], the IC50 in assay [1] was determined as 0.24 nM; in assay [2], 44.5 nM.

In the case of `Cc1c(F)c(N)cc(-c2nc3c4c(nc(OC[C@]56COC[C@H]5CCN6C)nc4c2F)N2C[C@H]4CC[C@H](N4)[C@H]2[C@H](C)O3)c1C(F)(F)F` (single isomer, unassigned) [134 (isomer 1)], the figures for the IC50 in assay [1] and in assay [2] were 0.19 nM and 39.4 nM, respectively.

For `Cc1cc(N)c(F)c(-c2nc3c4c(nc(OC[C@@]56CCCN5C[C@H](F)C6)nc4c2F)N2C[C@H]4CC[C@H](N4)[C@H]2[C@H](C)O3)c1I` [Compound 108, 2-Fluoro-3-((5S,5aS,6S,9R)-1-fluoro-12-(((2R,7aS)-2-fluorotetrahydro-1H-pyrrolizin-7a(5H)-yl)methoxy)-5-methyl-5a,6,7,8,9,10-hexahydro-5H-4-oxa-3,10a,11,13,14-pentaaza-6,9-methanonaphtho[1,8-ab]heptalen-2-yl)-4-iodo-5-methylaniline], the half-inhibitory concentration (IC50) stood at 0.325 nM in assay [1] and 37.6 nM in assay [2].

Regarding `Cc1c(F)c(N)cc(-c2nc3c4c(nc(OC[C@@H]5CC[C@@H]6C[C@@H](F)CN65)nc4c2F)N2C[C@H]4CC[C@H](N4)[C@H]2[C@H](C)O3)c1C(F)(F)F` (single isomer, unassigned) [152 (isomer 2)], the IC50 turned out to be 3.23 nM in assay [1] and 526 nM in assay [2].

In the case of `Cc1c(F)c(N)cc(-c2nc3c4c(nc(OCCCN5CCOCC5)nc4c2F)N2C[C@H]4CC[C@H](N4)[C@H]2[C@H](C)O3)c1C(F)(F)F` [Compound 138, 2-Fluoro-5-((5S,5aS,6S,9R)-1-fluoro-5-methyl-12-(3-morpholinopropoxy)-5a,6,7,8,9,10-hexahydro-5H-4-oxa-3,10a,11,13,14-pentaaza-6,9-methanonaphtho[1,8-ab]heptalen-2-yl)-3-methyl-4-(trifluoromethyl)aniline], the figures for the half-inhibitory concentration (IC50) in assay [1] and in assay [2] were 0.42 nM and 115 nM, respectively.

With `C[C@@H]1Oc2nc(-c3cc(N)ccc3C(F)(F)F)c(F)c3nc(OC[C@@]45CCCN4C[C@H](F)C5)nc(c23)N2C[C@H]3CC[C@H](N3)[C@@H]12` [Compound 72, 3-((5S,5aS,6S,9R)-1-Fluoro-12-(((2R,7aS)-2-fluorotetrahydro-1H-pyrrolizin-7a(5H)-yl)methoxy)-5-methyl-5a,6,7,8,9,10-hexahydro-5H-4-oxa-3,10a,11,13,14-pentaaza-6,9-methanonaphtho[1,8-ab]heptalen-2-yl)-4-(trifluoromethyl)aniline], the IC50 was 0.28 nM in assay [1] and 12.9 nM in assay [2].

For the compound `Cc1cc(N)c(F)c(-c2nc3c4c(nc(OC[C@@H]5CC[C@H]6COCCN65)nc4c2F)N2C[C@H]4CC[C@H](N4)[C@H]2[C@H](C)O3)c1Cl` [Compound 101, 4-Chloro-2-fluoro-3-((5S,5aS,6S,9R)-1-fluoro-12-(((6S,8aS)-hexahydro-1H-pyrrolo[2,1-c][1,4]oxazin-6-yl)methoxy)-5-methyl-5a,6,7,8,9,10-hexahydro-5H-4-oxa-3,10a,11,13,14-pentaaza-6,9-methanonaphtho[1,8-ab]heptalen-2-yl)-5-methylaniline], the concentration for half-maximal inhibition (IC50) in assay [1] worked out at 3.19 nM; in assay [2], 906 nM.

As to `C[C@@H]1Oc2nc(-c3nc(N)c(F)cc3C(F)(F)F)c(F)c3nc(OC[C@@]45CCCN4CC4(CC4(F)F)C5)nc(c23)N2C[C@H]3CC[C@H](N3)[C@@H]12` (stereo partly drawn) [Compound 86, 6-((5S,5aS,6S,9R)-12-(((7a′S)-2,2-difluorodihydro-1′H,3′H-spiro-[cyclopropane-1,2′-pyrrolizin]-7a′(5′H)-yl)methoxy)-1-fluoro-5-methyl-5a,6,7,8,9,10-hexahydro-5H-4-oxa-3,10a,11,13,14-pentaaza[6,9]methanonaphtho[1,8-ab]heptalen-2-yl)-3-fluoro-5-(trifluoromethyl)pyridin-2-amine], the results for the IC50 in assay [1] and in assay [2] were 4.67 nM and 248 nM, respectively.

On to `Cc1c(F)c(N)c(F)c(-c2nc3c4c(nc(OC[C@@]56CCCN5C[C@H](F)C6)nc4c2F)N2C[C@H]4CC[C@H](N4)[C@H]2[C@H](C)O3)c1CC(F)F` [Compound 175, 4-(2,2-Difluoroethyl)-2,6-difluoro-3-((5S,5aS,6S,9R)-1-fluoro-12-(((2R,7aS)-2-fluorotetrahydro-1H-pyrrolizin-7a(5H)-yl)methoxy)-5-methyl-5a,6,7,8,9,10-hexahydro-5H-4-oxa-3,10a,11,13,14-pentaaza-6,9-methanonaphtho[1,8-ab]heptalen-2-yl)-5-methylaniline], for which the IC50 in assay [1] was 3.39 nM; in assay [2] it was 108 nM.

With `C[C@@H]1Oc2nc(-c3cc(N)cc(C(F)(F)F)c3C(F)(F)F)c(F)c3nc(OC[C@@]45CCCN4C[C@H](F)C5)nc(c23)N2C[C@H]3CC[C@H](N3)[C@@H]12` [Compound 115, 3-((5S,5aS,6S,9R)-1-fluoro-12-(((2R,7aS)-2-fluorotetrahydro-1H-pyrrolizin-7a(5H)-yl)methoxy)-5-methyl-5a,6,7,8,9,10-hexahydro-5H-4-oxa-3,10a,11,13,14-pentaaza-6,9-methanonaphtho[1,8-ab]heptalen-2-yl)-4,5-bis(trifluoromethyl)aniline], the 50% inhibitory concentration (IC50) in assay [1] is 0.39 nM; in assay [2], 34.1 nM.

As for `Cc1cc(N)c(F)c(-c2nc3c4c(nc(OC[C@@H]5CC[C@H]6COCCN65)nc4c2F)N2C[C@H]4CC[C@H](N4)[C@H]2[C@H](C)O3)c1C(F)(F)F` [Compound 97, 2-Fluoro-3-((5S,5aS,6S,9R)-1-fluoro-12-(((6S,8aS)-hexahydro-1H-pyrrolo[2,1-c][1,4]oxazin-6-yl)methoxy)-5-methyl-5a,6,7,8,9,10-hexahydro-5H-4-oxa-3,10a,11,13,14-pentaaza-6,9-methanonaphtho[1,8-ab]heptalen-2-yl)-5-methyl-4-(trifluoromethyl)aniline], the IC50 worked out at 0.37 nM in assay [1] and 43.7 nM in assay [2].

Consider `Cc1c(F)c(N)c(F)c(-c2nc3c4c(nc(OC[C@@H]5CC[C@H]6COCCN65)nc4c2F)N2C[C@H]4CC[C@H](N4)[C@H]2[C@H](C)O3)c1C(F)(F)F` [Compound 96, 2,6-Difluoro-3-((5S,5aS,6S,9R)-1-fluoro-12-(((6S,8aS)-hexahydro-1H-pyrrolo[2,1-c][1,4]oxazin-6-yl)methoxy)-5-methyl-5a,6,7,8,9,10-hexahydro-5H-4-oxa-3,10a,11,13,14-pentaaza-6,9-methanonaphtho[1,8-ab]heptalen-2-yl)-5-methyl-4-(trifluoromethyl)aniline], for which the IC50 in assay [1] was determined as 0.433 nM; in assay [2], 75.8 nM.

For `Cc1cc(N)cc(-c2nc3c4c(nc(OC[C@@]56CCCN5CC5(CC5(F)F)C6)nc4c2F)N2C[C@H]4CC[C@H](N4)[C@H]2[C@H](C)O3)c1C(F)(F)F` (stereo partly drawn) [Compound 68, 3-((5S,5aS,6S,9R)-12-(((7a′S)-2,2-Difluorodihydro-1′H,3′H-spiro[cyclopropane-1,2′-pyrrolizin]-7a′(5′H)-yl)methoxy)-1-fluoro-5-methyl-5a,6,7,8,9,10-hexahydro-5H-4-oxa-3,10a,11,13,14-pentaaza[6,9]methanonaphtho[1,8-ab]heptalen-2-yl)-5-methyl-4-(trifluoromethyl)aniline], the results for the IC50 in assay [1] and in assay [2] were 0.07 nM and 0.112 nM, respectively.
